In brackets after ≈: the same amount, converted by molar mass.
Experiments:
[1] = system: Escherichia coli; experiment: Antimicrobial activity against Escherichia coli DH10B by disk diffusion method; format: functional; conditions: K-12 DH10B
[2] = Antimicrobial activity against Salmonella enterica serotype Westhampton isolate 04CEB8273SAL expressing CTX-M-53 gene […]; format: functional, Salmonella enterica subsp. enterica serovar Westhampton
[3] = system: Escherichia coli; experiment: Antimicrobial activity against Escherichia coli DH5[alpha] harboring recombinant plasmid carrying CTX-M-53 gene by disk diffusion method; format: functional
[4] = system: Escherichia coli; experiment: Antimicrobial activity against Escherichia coli DH10B harboring natural plasmid pWES-1 carrying CTX-M-53 gene […]; format: functional; conditions: K-12 DH10B
[5] = Antimicrobial activity against Salmonella enterica serotype Westhampton isolate 04CEB8273SAL expressing CTX-M-53 gene […] in presence of clavulanic acid; format: functional, Salmonella enterica subsp. enterica serovar Westhampton
[6] = system: Escherichia coli; experiment: Antimicrobial activity against Escherichia coli DH10B […] in presence of clavulanic acid; format: functional; conditions: K-12 DH10B
[7] = system: Escherichia coli; experiment: Antimicrobial activity against Escherichia coli DH10B harboring natural plasmid pWES-1 carrying CTX-M-53 gene […] in presence of clavulanic acid; format: functional; conditions: K-12 DH10B
[8] = system: Escherichia coli; experiment: Antimicrobial activity against Escherichia coli DH5[alpha] harboring phagemid pBK-CMV […] in presence of clavulanic acid; format: functional
[9] = system: Escherichia coli; experiment: Antimicrobial activity against Escherichia coli DH5[alpha] harboring recombinant plasmid carrying CTX-M-53 gene […] in presence of clavulanic acid; format: functional
[10] = system: Escherichia coli; experiment: Antimicrobial activity against Escherichia coli ATCC 25922 […] in presence of clavulanic acid; format: functional
[11] = system: Escherichia coli; experiment: Antimicrobial activity against Escherichia coli ATCC 25922 by disk diffusion method; format: functional
[12] = system: Escherichia coli; experiment: Antimicrobial activity against Escherichia coli DH5[alpha] harboring phagemid pBK-CMV […]; format: functional
[13] = system: Escherichia coli; experiment: Antimicrobial activity against Escherichia coli ATCC 25922 by Etest in presence of clavulanic acid; format: functional
[14] = system: Escherichia coli; experiment: Antimicrobial activity against Escherichia coli DH5[alpha] harboring phagemid pBK-CMV by Etest in presence of clavulanic acid; format: functional
[15] = system: Escherichia coli; experiment: Antimicrobial activity against Escherichia coli DH10B by Etest in presence of clavulanic acid; format: functional; conditions: K-12 DH10B
[16] = Antimicrobial activity against Salmonella enterica serotype Westhampton isolate 04CEB8273SAL CTX-M-53 gene by Etest in presence of clavulanic acid; format: functional, Salmonella enterica subsp. enterica serovar Westhampton
[17] = system: Escherichia coli; experiment: Antimicrobial activity against Escherichia coli DH5[alpha] harboring recombinant plasmid carrying CTX-M-53 gene by Etest in presence of clavulanic acid; format: functional
[18] = system: Escherichia coli; experiment: Antimicrobial activity against Escherichia coli DH10B harboring natural plasmid pWES-1 carrying CTX-M-53 gene by Etest in presence of clavulanic acid; format: functional; conditions: K-12 DH10B
[19] = Antimicrobial activity against Salmonella enterica serotype Westhampton isolate 04CEB8273SAL expressing CTX-M-53 gene by Etest; format: functional, Salmonella enterica subsp. enterica serovar Westhampton
[20] = system: Escherichia coli; experiment: Antimicrobial activity against Escherichia coli DH10B by Etest; format: functional; conditions: K-12 DH10B
[21] = system: Escherichia coli; experiment: Antimicrobial activity against Escherichia coli DH5[alpha] harboring phagemid pBK-CMV by Etest; format: functional
[22] = system: Escherichia coli; experiment: Antimicrobial activity against Escherichia coli ATCC 25922 by Etest; format: functional
[23] = Antimicrobial activity against Salmonella enterica serotype Westhampton isolate 04CEB8273SAL expressing CTX-M-53 gene […] in presence of Tazobactam; format: functional, Salmonella enterica subsp. enterica serovar Westhampton
[24] = system: Escherichia coli; experiment: Antimicrobial activity against Escherichia coli DH5[alpha] harboring recombinant plasmid carrying CTX-M-53 gene […] in presence of Tazobactam; format: functional
[25] = system: Escherichia coli; experiment: Antimicrobial activity against Escherichia coli DH10B harboring natural plasmid pWES-1 carrying CTX-M-53 gene […] in presence of Tazobactam; format: functional; conditions: K-12 DH10B
[26] = system: Escherichia coli; experiment: Antimicrobial activity against Escherichia coli DH5[alpha] harboring phagemid pBK-CMV […] in presence of Tazobactam; format: functional
[27] = system: Escherichia coli; experiment: Antimicrobial activity against Escherichia coli ATCC 25922 […] in presence of Tazobactam; format: functional
[28] = system: Escherichia coli; experiment: Antimicrobial activity against Escherichia coli DH10B […] in presence of Tazobactam; format: functional; conditions: K-12 DH10B

SMILES | MIC [1] [µg/mL] | MIC [2] [µg/mL] | MIC [3] [µg/mL] | MIC [4] [µg/mL] | MIC [11] [µg/mL] | MIC [12] [µg/mL] | other results
CO/N=C(\C(=O)N[C@@H]1C(=O)N2C(C(=O)[O-])=C(C[N+]3(C)CCCC3)CS[C@H]12)c1csc(N)n1 | 0.125 (≈ 0.26 µM) | > 32 | > 32 | 32 (≈ 66.6 µM) | – | – | –
CC1(C)S[C@@H]2[C@H](NC(=O)[C@H](N)c3ccc(O)cc3)C(=O)N2[C@H]1C(=O)O [AMOXICILLIN] | – | – | – | – | – | – | MIC [5]: 8 µg/mL; MIC [6]: 8 µg/mL; MIC [7]: 8 µg/mL; MIC [8]: 4 µg/mL; MIC [9]: 8 µg/mL; MIC [10]: 8 µg/mL
CC1(C)S[C@@H]2[C@H](NC(=O)[C@H](N)c3ccccc3)C(=O)N2[C@H]1C(=O)O [AMPICILLIN] | 4 (≈ 11.4 µM) | > 256 | > 256 | > 256 | 4 (≈ 11.4 µM) | – | –
C[C@H]1[C@H](NC(=O)/C(=N\OC(C)(C)C(=O)O)c2csc(N)n2)C(=O)N1S(=O)(=O)O [AZTREONAM] | 0.25 (≈ 0.574 µM) | > 256 | 128 | 128 (≈ 294 µM) | 0.06 (≈ 0.138 µM) | < 0.06 | –
CO/N=C(\C(=O)N[C@@H]1C(=O)N2C(C(=O)O)=C(COC(C)=O)CS[C@H]12)c1csc(N)n1 [CEFOTAXIME] | – | – | – | – | – | – | MIC [13]: 0.06 µg/mL; MIC [14]: < 0.06 µg/mL; MIC [15]: 0.125 µg/mL; MIC [16]: 1 µg/mL; MIC [17]: 0.06 µg/mL; MIC [18]: 0.125 µg/mL
CO[C@@]1(NC(=O)Cc2cccs2)C(=O)N2C(C(=O)O)=C(COC(N)=O)CS[C@@H]21 [CEFOXITIN] | 4 (≈ 9.36 µM) | 8 (≈ 18.7 µM) | 4 | 4 (≈ 9.36 µM) | 2 (≈ 4.68 µM) | 2 (≈ 4.68 µM) | –
CC(C)(O/N=C(\C(=O)N[C@@H]1C(=O)N2C(C(=O)[O-])=C(C[n+]3ccccc3)CS[C@H]12)c1csc(N)n1)C(=O)O [CEFTAZIDIME] | 0.5 (≈ 0.915 µM) | > 256 | 64 | 64 (≈ 117 µM) | 0.25 (≈ 0.457 µM) | 0.125 (≈ 0.229 µM) | MIC [5]: 2 µg/mL; MIC [6]: 0.5 µg/mL; MIC [7]: 0.5 µg/mL; MIC [8]: 0.125 µg/mL; MIC [9]: 0.125 µg/mL; MIC [10]: 0.125 µg/mL
CO/N=C(\C(=O)N[C@@H]1C(=O)N2C(C(=O)O)=C(CSc3nc(=O)c(O)nn3C)CS[C@H]12)c1csc(N)n1 [CEFTRIAXONE] | – | – | – | – | – | – | MIC [19]: > 256 µg/mL; MIC [20]: 0.125 µg/mL (≈ 0.225 µM); MIC [21]: < 0.06 µg/mL; MIC [22]: 0.06 µg/mL (≈ 0.108 µM)
C[C@@H](O)[C@H]1C(=O)N2C(C(=O)O)=C(SCCNC=N)C[C@H]12 [IMIPENEM ANHYDROUS] | – | 0.5 (≈ 1.67 µM) | – | – | – | – | –
CCN1CCN(C(=O)N[C@@H](C(=O)N[C@@H]2C(=O)N3[C@@H]2SC(C)(C)[C@@H]3C(=O)O)c2ccccc2)C(=O)C1=O [PIPERACILLIN] | 2 (≈ 3.86 µM) | > 256 | > 256 | > 256 | 2 (≈ 3.86 µM) | 1 (≈ 1.93 µM) | MIC [23]: 16 µg/mL; MIC [24]: 2 µg/mL; MIC [25]: 4 µg/mL; MIC [26]: 1 µg/mL; MIC [27]: 2 µg/mL; MIC [28]: 4 µg/mL
CC1(C)S[C@@H]2[C@H](NC(=O)[C@H](C(=O)O)c3ccsc3)C(=O)N2[C@H]1C(=O)O [TICARCILLIN] | 8 (≈ 20.8 µM) | > 256 | > 256 | > 256 | 8 (≈ 20.8 µM) | 2 (≈ 5.2 µM) | MIC [5]: 128 µg/mL; MIC [6]: 2 µg/mL; MIC [7]: 32 µg/mL; MIC [8]: 2 µg/mL; MIC [9]: 32 µg/mL; MIC [10]: 4 µg/mL

Source: ChEMBL document CHEMBL1649429, “Novel plasmid-encoded ceftazidime-hydrolyzing CTX-M-53 extended-spectrum beta-lactamase from Salmonella enterica serotypes Westhampton and Senftenberg” (Antimicrob Agents Chemother, 2009)
